Laboratory results: patent US9453026B2, “ACC inhibitors and uses thereof” (Gilead Apollo, Inc., priority 2011, dated 2016)
Values after ≈ are worked out from the molar mass of the structure shown. Values joined by “and” are separate entries in the source; they are usually repeats but may differ in a detail not shown here. Equal entries are not always repeated. Where two headings read alike, the source gives them in different places.

How the values were obtained:
C. albicans ATCC 90028 = test: Anti-Fungal Activity Assay (broth microtiter MIC); assay type: cell-based; conditions: 3 replicates, test compounds read at 48 h
Method: (§1) Compounds of the present invention were evaluated in an Anti-Fungal Activity Assay. An exemplary procedure for the assay, which measures the susceptibility of various Candida species to anti-fungal compounds, follows. Compounds to be tested (including fluconazole and amphotericin B) were dissolved in DMSO to obtain a solution having a concentration of 1 mg/mL. […] All species were grown from frozen stock by directly plating on to freshly prepared Sabouraud Dextrose agar (BD, Difco) and incubated overnight in ambient air at 35° C. for 24 h. A direct suspension was prepared in RPMI 1640+MOPS (Lonza, Biowhittaker) by taking individual colonies from the overnight cultures using sterile swabs soaked in sterile saline. The concentration of the suspension was determined using pre-determined standard curves. […] The original CLSI guidelines focused on reading Candida MICs after 48 h of incubation. As reading after only 24 h offers a clear advantage of patient care, QC limits are being established for all drugs at 24 h. That being said there are no known interpretive breakpoints for amphotericin B at 24 h and the current fluconazole interpretive breakpoints are based on a 48 h reading. The MIC breakpoints for the Pharmaron test compounds were recorded at 48 h, and for the soraphen the 24 h time-point was added. All MIC determinations were achieved by visually comparing the growth found in the antibiotic challenged wells to that of the growth control.

C. krusei ATCC 6258 = test: Anti-Fungal Activity Assay (broth microtiter MIC); assay type: cell-based; conditions: 3 replicates, test compounds read at 48 h
Method: as §1

[1] = tested on: C. parapsilosis ATCC 22019; test: Anti-Fungal Activity Assay (broth microtiter MIC); assay type: cell-based; conditions: 3 replicates, test compounds read at 48 h
Method: as §1

ACC2 = ACC2 (Homo sapiens, UniProt O00763); test: In vitro ACC2 inhibition assay (ADP-Glo); assay type: biochemical
Chain of ACC2 (O00763 whole entry, species assumed): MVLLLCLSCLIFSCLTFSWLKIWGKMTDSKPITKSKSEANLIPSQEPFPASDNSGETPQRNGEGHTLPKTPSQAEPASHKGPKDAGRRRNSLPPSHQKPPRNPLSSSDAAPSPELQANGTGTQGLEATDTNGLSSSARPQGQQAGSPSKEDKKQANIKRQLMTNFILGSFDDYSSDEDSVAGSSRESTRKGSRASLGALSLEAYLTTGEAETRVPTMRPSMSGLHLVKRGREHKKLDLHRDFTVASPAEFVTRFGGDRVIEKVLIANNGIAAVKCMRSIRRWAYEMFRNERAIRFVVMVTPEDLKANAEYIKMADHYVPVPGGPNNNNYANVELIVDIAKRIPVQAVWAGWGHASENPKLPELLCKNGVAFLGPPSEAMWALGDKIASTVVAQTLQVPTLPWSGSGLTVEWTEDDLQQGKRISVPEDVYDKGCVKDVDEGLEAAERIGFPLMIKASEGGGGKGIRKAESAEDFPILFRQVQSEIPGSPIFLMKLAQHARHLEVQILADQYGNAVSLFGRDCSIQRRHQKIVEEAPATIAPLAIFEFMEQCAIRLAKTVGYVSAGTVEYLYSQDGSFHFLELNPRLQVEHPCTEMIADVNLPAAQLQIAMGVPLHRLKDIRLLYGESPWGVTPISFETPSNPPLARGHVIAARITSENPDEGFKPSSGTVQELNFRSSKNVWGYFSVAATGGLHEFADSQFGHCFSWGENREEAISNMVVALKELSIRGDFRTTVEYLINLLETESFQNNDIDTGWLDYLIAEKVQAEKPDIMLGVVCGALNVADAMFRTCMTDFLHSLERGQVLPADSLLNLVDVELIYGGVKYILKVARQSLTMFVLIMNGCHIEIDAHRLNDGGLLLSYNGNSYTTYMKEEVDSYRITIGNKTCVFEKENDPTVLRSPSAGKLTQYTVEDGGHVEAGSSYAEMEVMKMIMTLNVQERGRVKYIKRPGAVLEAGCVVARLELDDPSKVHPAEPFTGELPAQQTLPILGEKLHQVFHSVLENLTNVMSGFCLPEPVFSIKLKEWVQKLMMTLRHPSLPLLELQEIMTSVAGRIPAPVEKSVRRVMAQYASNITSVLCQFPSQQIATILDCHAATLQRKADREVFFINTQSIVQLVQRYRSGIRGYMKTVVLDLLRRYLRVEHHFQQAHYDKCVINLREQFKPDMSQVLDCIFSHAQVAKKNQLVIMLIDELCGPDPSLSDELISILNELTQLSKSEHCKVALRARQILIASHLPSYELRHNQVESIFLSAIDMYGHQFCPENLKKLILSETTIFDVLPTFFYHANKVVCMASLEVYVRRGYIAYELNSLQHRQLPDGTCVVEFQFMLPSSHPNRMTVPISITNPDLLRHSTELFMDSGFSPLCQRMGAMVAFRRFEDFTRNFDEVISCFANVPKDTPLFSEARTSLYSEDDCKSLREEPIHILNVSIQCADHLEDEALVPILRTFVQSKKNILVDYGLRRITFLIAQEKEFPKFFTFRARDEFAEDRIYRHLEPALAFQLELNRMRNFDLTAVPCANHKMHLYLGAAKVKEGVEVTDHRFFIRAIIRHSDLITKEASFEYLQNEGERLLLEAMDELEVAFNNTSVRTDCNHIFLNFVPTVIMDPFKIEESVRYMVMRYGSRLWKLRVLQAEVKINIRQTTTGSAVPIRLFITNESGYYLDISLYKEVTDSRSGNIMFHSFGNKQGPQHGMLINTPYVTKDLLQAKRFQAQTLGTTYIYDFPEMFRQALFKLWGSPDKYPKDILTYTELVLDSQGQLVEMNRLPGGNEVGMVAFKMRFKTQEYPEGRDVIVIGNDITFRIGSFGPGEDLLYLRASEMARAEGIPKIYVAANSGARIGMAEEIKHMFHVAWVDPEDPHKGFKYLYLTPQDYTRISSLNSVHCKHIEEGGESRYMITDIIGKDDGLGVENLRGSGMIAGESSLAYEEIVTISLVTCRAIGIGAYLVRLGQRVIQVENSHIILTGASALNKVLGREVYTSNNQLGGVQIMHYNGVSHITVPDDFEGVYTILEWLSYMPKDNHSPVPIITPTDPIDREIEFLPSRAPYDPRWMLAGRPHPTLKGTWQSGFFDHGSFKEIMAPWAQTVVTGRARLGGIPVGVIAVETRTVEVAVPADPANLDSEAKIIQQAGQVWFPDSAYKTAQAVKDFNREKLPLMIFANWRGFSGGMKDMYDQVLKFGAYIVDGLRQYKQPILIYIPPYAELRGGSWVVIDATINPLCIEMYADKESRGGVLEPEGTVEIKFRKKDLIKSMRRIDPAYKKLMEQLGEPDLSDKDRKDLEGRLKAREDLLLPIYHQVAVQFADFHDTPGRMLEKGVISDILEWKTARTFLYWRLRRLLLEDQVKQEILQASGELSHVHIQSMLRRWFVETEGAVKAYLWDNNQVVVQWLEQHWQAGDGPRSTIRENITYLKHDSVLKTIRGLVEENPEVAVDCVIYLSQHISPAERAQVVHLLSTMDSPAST
Method in brief: (§2)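 Enzyme (human ACC1 or ACC2) and compound, serially diluted 1:3 over 11 points from a 600 uM DMSO stock, were preincubated 15 min before substrate addition.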

ACC1 = ACC1 (Homo sapiens, UniProt Q13085); test: In vitro ACC1 inhibition assay (ADP-Glo); assay type: biochemical
Method in brief: as §2

| SMILES | IC50 (ACC2; read-out: ACC2) | IC50 (ACC1; read-out: ACC1) | other results |
| --- | --- | --- | --- |
| C[C@@H]1[C@H](O)[C@@H](C)/C=C/C=C/C=C/C=C/C=C/C=C/C=C/[C@H](O[C@@H]2O[C@H](C)[C@@H](O)[C@H](N)[C@@H]2O)C[C@@H]2O[C@](O)(C[C@@H](O)C[C@@H](O)[C@H](O)CC[C@@H](O)C[C@@H](O)CC(=O)O[C@H]1C)C[C@H](O)[C@H]2C(=O)O [Amph. B, amphotericin B, reference compound] |  |  | MIC (C. albicans ATCC 90028): 0.5 ug/mL (2×) and 1 ug/mL; MIC (C. krusei ATCC 6258): 1 µg/mL (≈ 1.08 µM); MIC [1]: 1 µg/mL (≈ 1.08 µM) |
| OC(Cn1cncn1)(Cn1cncn1)c1ccc(F)cc1F [Fluc., fluconazole, reference compound] |  |  | MIC (C. albicans ATCC 90028): 1 µg/mL and 2 µg/mL; MIC (C. albicans ATCC 90028; Candida albicans, ATCC90028, 48 h, read-out: MIC): 1 µg/mL (≈ 3.27 µM); MIC (C. krusei ATCC 6258): 32 ug/mL (2×) and 2 ug/mL; MIC [1]: 2 µg/mL and 4 µg/mL; MIC ([1]; Lodderomyces parapsilosis, ATCC22019, 48 h, read-out: MIC): 2 µg/mL (≈ 6.53 µM) |
| [2H]C([2H])([2H])Oc1ccccc1[C@H](Cn1c(=O)n(C(C)(C)C(=O)O)c(=O)c2c(C)c(-c3ncco3)sc21)OC1CCOCC1 [I-271, 2-[1-[(2R)-2-[2-(d3)methoxyphenyl]-2-(oxan-4-yloxy)ethyl]-5-methyl-6-(1,3-oxazol-2-yl)-2,4-dioxo-1H,2H,3H,4H-thieno[2,3-d]pyrimidin-3-yl]-2-methylpropanoic acid] |  |  | IC50 (ACC2): < 100 nM; IC50 (ACC1): < 100 nM |
| COc1ccccc1[C@H](Cn1c(=O)n(CC(N)=O)c(=O)c2c(C)c(-c3ncco3)sc21)OC1CCOCC1 [I-288] | < 100 nM | < 100 nM |  |
| COc1ccccc1[C@H](Cn1c(=O)n(Cc2nnc[nH]2)c(=O)c2c(C)c(-c3ncco3)sc21)OC1CCOCC1 [I-289, 1-[(2R)-2-(2-methoxyphenyl)-2-(oxan-4-yloxy)ethyl]-5-methyl-6-(1,3-oxazol-2-yl)-3-(4H-1,2,4-triazol-3-ylmethyl)-1H,2H,3H,4H-thieno[2,3-d]pyrimidine-2,4-dione] | < 100 nM | < 100 nM |  |
| COc1ccccc1[C@H](Cn1c(=O)n(C(C)(C)CO)c(=O)c2c(C)c(-c3ncco3)sc21)OC1CCOCC1 [I-290, 3-(1-hydroxy-2-methylpropan-2-yl)-1-[(2R)-2-(2-methoxyphenyl)-2-(oxan-4-yloxy)ethyl]-5-methyl-6-(1,3-oxazol-2-yl)-1H,2H,3H,4H-thieno[2,3-d]pyrimidine-2,4-dione] | < 100 nM | < 100 nM |  |
| Cc1c(-c2ncco2)sc2c1c(=O)n(C(C)(C)C(=O)O)c(=O)n2C[C@H](OC1CCOCC1)c1ccccc1OC(C)C [I-291, 2-methyl-2-[5-methyl-1-[(2R)-2-(oxan-4-yloxy)-2-[2-(propan-2-yloxy)phenyl]ethyl]-6-(1,3-oxazol-2-yl)-2,4-dioxo-1H,2H,3H,4H-thieno[2,3-d]pyrimidin-3-yl]propanoic acid] | < 100 nM | < 100 nM |  |
| Cc1c(-c2ncco2)sc2c1c(=O)n(C(C)(C)C(N)=O)c(=O)n2C[C@H](OC1CCOCC1)c1ccccc1OC(C)C [I-292, 2-methyl-2-[5-methyl-1-[(2R)-2-(oxan-4-yloxy)-2-[2-(propan-2-yloxy)phenyl]ethyl]-6-(1,3-oxazol-2-yl)-2,4-dioxo-1H,2H,3H,4H-thieno[2,3-d]pyrimidin-3-yl]propanamide] | < 100 nM | < 100 nM |  |
| Cc1c(-c2ncco2)sc2c1c(=O)n(C(C)(C)C(=O)O)c(=O)n2C[C@H](O[C@H]1CC[C@H](O)CC1)c1ccccc1OC(C)C [I-294, 2-(1-((R)-2-(((1r,4R)-4-hydroxycyclohexyl)oxy)-2-(2-isopropoxyphenyl)ethyl)-5-methyl-6-(oxazol-2-yl)-2,4-dioxo-1,2-dihydrothieno[2,3-d]pyrimidin-3(4H)-yl)-2-methylpropanoic acid] | < 100 nM | < 100 nM |  |
| Cc1c(-c2ncco2)sc2c1c(=O)n(C(C)(C)C(=O)O)c(=O)n2C[C@H](O[C@H]1CC[C@@H](O)CC1)c1ccccc1OC(C)C [I-295, 2-(1-((R)-2-(((1s,4S)-4-hydroxycyclohexyl)oxy)-2-(2-isopropoxyphenyl)ethyl)-5-methyl-6-(oxazol-2-yl)-2,4-dioxo-1,2-dihydrothieno[2,3-d]pyrimidin-3(4H)-yl)-2-methylpropanoic] | < 100 nM | < 100 nM |  |
| Cc1c(-c2ncco2)sc2c1c(=O)n(C(C)(C)C(=O)O)c(=O)n2C[C@H](OC1CCOCC1)c1ccccc1COC(C)C [I-297, 2-methyl-2-[5-methyl-1-[(2R)-2-(oxan-4-yloxy)-2-[2-[(propan-2-yloxy)methyl]phenyl]ethyl]-6-(1,3-oxazol-2-yl)-2,4-dioxo-1H,2H,3H,4H-thieno[2,3-d]pyrimidin-3-yl]propanoic acid] | < 100 nM | < 100 nM |  |
| Cc1c(-c2ncco2)sc2c1c(=O)n(C(C)(C)C(=O)O)c(=O)n2C[C@@H](OC1CCOCC1)c1ccccc1CC#N [I-303, (S)-2-(1-(2-(2-(cyanomethyl)phenyl)-2-((tetrahydro-2H-pyran-4-yl)oxy)ethyl)-5-methyl-6-(oxazol-2-yl)-2,4-dioxo-1,2-dihydrothieno[2,3-d]pyrimidin-3(4H)-yl)-2-methylpropanoic acid] | < 100 nM | < 100 nM |  |

Further lines, with some results ahead:

| IC50 (ACC2; read-out: ACC2) | IC50 (ACC1; read-out: ACC1) | SMILES | other results |
| --- | --- | --- | --- |
| < 100 nM | < 100 nM | Cc1c(-c2ncco2)sc2c1c(=O)n(C(C)(C)C(=O)O)c(=O)n2C[C@H](OC1CCOCC1)c1ccccc1OC(F)F [I-264, 2-[1-[(2R)-2-[2-(difluoromethoxy)phenyl]-2-(oxan-4-yloxy)ethyl]-5-methyl-6-(1,3-oxazol-2-yl)-2,4-dioxo-1H,2H,3H,4H-thieno[2,3-d]pyrimidin-3-yl]-2-methylpropanoic acid] |  |
| < 100 nM | < 100 nM | Cc1c(-c2ncco2)sc2c1c(=O)n(C(C)(C)C(=O)O)c(=O)n2C[C@H](OC(C)C)c1ccccc1OC(F)F [I-267, 2-[1-[(2R)-2-[2-(difluoromethoxy)phenyl]-2-(propan-2-yloxy)ethyl]-5-methyl-6-(1,3-oxazol-2-yl)-2,4-dioxo-1H,2H,3H,4H-thieno[2,3-d]pyrimidin-3-yl]-2-methylpropanoic acid] |  |
| < 100 nM | < 100 nM | Cc1c(-c2ncco2)sc2c1c(=O)n(C(C)(C)C(N)=O)c(=O)n2C[C@H](OC(C)C)c1ccccc1OC(F)F [I-268, 2-[1-[(2R)-2-[2-(difluoromethoxy)phenyl]-2-(propan-2-yloxy)ethyl]-5-methyl-6-(1,3-oxazol-2-yl)-2,4-dioxo-1H,2H,3H,4H-thieno[2,3-d]pyrimidin-3-yl]-2-methylpropanamide] |  |
| < 100 nM | < 100 nM | Cc1c(-c2ncco2)sc2c1c(=O)n(C(C)(C)C(N)=O)c(=O)n2C[C@H](OC1CCOCC1)c1ccccc1OC(F)F [I-274, 2-[1-[(2R)-2-[2-(difluoromethoxy)phenyl]-2-(oxan-4-yloxy)ethyl]-5-methyl-6-(1,3-oxazol-2-yl)-2,4-dioxo-1H,2H,3H,4H-thieno[2,3-d]pyrimidin-3-yl]-2-methylpropanamide] |  |
| < 100 nM | < 100 nM | COc1ccccc1[C@H](Cn1c(=O)n(C(C)(C)C(=O)O)c(=O)c2c(C)c(-c3ncco3)sc21)O[C@H]1CC[C@H](O)CC1 [I-277, 2-[1-[(2R)-2-[(4-hydroxycyclohexyl)oxy]-2-(2-methoxyphenyl)ethyl]-5-methyl-6-(1,3-oxazol-2-yl)-2,4-dioxo-1H,2H,3H,4H-thieno[2,3-d]pyrimidin-3-yl]-2-methylpropanoic acid] |  |
| < 100 nM | < 100 nM | COc1ccccc1[C@H](Cn1c(=O)n(C(C)(C)C(N)=O)c(=O)c2c(C)c(-c3ncco3)sc21)O[C@H]1CC[C@@H](O)CC1 [I-279, 2-[1-[(2R)-2-[(4-hydroxycyclohexyl)oxy]-2-(2-methoxyphenyl)ethyl]-5-methyl-6-(1,3-oxazol-2-yl)-2,4-dioxo-1H,2H,3H,4H-thieno[2,3-d]pyrimidin-3-yl]-2-methylpropanamide] |  |
| < 100 nM | < 100 nM | Cc1ccccc1[C@H](Cn1c(=O)n(C(C)(C)C(=O)O)c(=O)c2c(C)c(-c3ncco3)sc21)OC1CCOCC1 [I-282, 2-methyl-2-[5-methyl-1-[(2R)-2-(2-methylphenyl)-2-(oxan-4-yloxy)ethyl]-6-(1,3-oxazol-2-yl)-2,4-dioxo-1H,2H,3H,4H-thieno[2,3-d]pyrimidin-3-yl]propanoic acid] |  |
| < 100 nM | < 100 nM | COc1ccccc1[C@H](Cn1c(=O)n(CC(=O)O)c(=O)c2c(C)c(-c3ncco3)sc21)OC1CCOCC1 [I-286, 2-[1-[(2R)-2-(2-methoxyphenyl)-2-(oxan-4-yloxy)ethyl]-5-methyl-6-(1,3-oxazol-2-yl)-2,4-dioxo-1H,2H,3H,4H-thieno[2,3-d]pyrimidin-3-yl]acetic acid] |  |
| < 100 nM | < 100 nM | COc1ccccc1[C@H](Cn1c(=O)n(CC(C)(C)O)c(=O)c2c(C)c(-c3ncco3)sc21)OC1CCOCC1 [I-287, 3-(2-hydroxy-2-methylpropyl)-1-[(2R)-2-(2-methoxyphenyl)-2-(oxan-4-yloxy)ethyl]-5-methyl-6-(1,3-oxazol-2-yl)-1H,2H,3H,4H-thieno[2,3-d]pyrimidine-2,4-dione] |  |
